For three compounds, Ki, EC50 and Activity results are on record in ChEMBL document CHEMBL4385611, “Difluoromethylene at the γ-Lactam α-Position Improves 11-Deoxy-8-aza-PGE1 Series EP4 Receptor Binding and Activity: 11-Deoxy-10,10-difluoro-8-aza-PGE1 Analog (KMN-159) as a Potent EP4 Agonist” (J Med Chem, 2019).

What is called Ki is a measure of affinity in units of concentration, obtained from inhibition or displacement. Broadly, the EC50 is the midpoint of the concentration-response curve.

The target in experiment [1] is T1, Prostaglandin E2 receptor EP2 subtype (Homo sapiens, UniProt P43116). Kind of experiment: Displacement of [3H]PGE2 from human recombinant EP2 receptor expressed in HEK293 cell membranes after 120 mins by liquid scintillation counting method.
T1 sequence (P43116 whole entry): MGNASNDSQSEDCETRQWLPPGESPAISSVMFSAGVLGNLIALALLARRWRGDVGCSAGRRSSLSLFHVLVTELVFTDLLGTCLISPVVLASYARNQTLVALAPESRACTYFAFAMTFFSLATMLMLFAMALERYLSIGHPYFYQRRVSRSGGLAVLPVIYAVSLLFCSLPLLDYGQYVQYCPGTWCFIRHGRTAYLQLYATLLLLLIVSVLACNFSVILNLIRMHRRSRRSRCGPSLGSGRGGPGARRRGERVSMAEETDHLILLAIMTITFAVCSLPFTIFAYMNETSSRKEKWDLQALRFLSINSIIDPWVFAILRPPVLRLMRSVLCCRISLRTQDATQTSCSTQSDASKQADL
The target in experiment [2] is T1, Prostaglandin E2 receptor EP2 subtype. Kind of experiment: Agonist activity at human EP2 receptor expressed in HEK293T/17 cells assessed as increase in intracellular cAMP level incubated for 30 mins by ELISA. Type of experiment: functional, cell-based.
Experiment [3] concerns the target T2, Prostaglandin E2 receptor EP4 subtype (Homo sapiens, UniProt P35408). Briefly: Agonist activity at human EP4 receptor expressed in HEK293T/17 cells assessed as increase in intracellular cAMP level incubated for 30 mins by ELISA. The experiment is classed as functional, cell-based. Background: Cyclic AMP is a second messenger, typically raised through Gs and lowered through Gi signalling.

The target of experiment [4] is T2, Prostaglandin E2 receptor EP4 subtype. Kind of experiment: Agonist activity at human EP4 receptor expressed in HEK293T/17 cells assessed as increase in GalphaS-mediated CREB activation measured after 6 to 24 hrs by SEAP reporter gene-based chemiluminescence assay. The experiment is classed as functional, cell-based. For orientation: Reporter assays use an easily measured gene product as a stand-in for the process of interest.

Experiment [5] addresses T1, Prostaglandin E2 receptor EP2 subtype. Briefly: Agonist activity at human EP2 receptor expressed in HEK293T/17 cells assessed as increase in intracellular cAMP level at 10 uM incubated for 30 mins by ELISA relative to control. The experiment is classed as functional, cell-based.
For experiment [6] the target is unchanged. Briefly: Agonist activity at human EP2 receptor expressed in HEK293T/17 cells assessed as increase in GalphaS-mediated CREB activation measured after 6 to 24 hrs by SEAP reporter gene-based chemiluminescence assay. The experiment is classed as functional, cell-based.
In experiment [7] the target is T2, Prostaglandin E2 receptor EP4 subtype. Briefly: Displacement of [3H]PGE2 from human recombinant EP4 receptor expressed in HEK293 cell membranes after 120 mins by liquid scintillation counting method.
The target in experiment [8] is T3, Prostaglandin E2 receptor EP3 subtype (Homo sapiens, UniProt P43115).
T3 sequence (P43115 whole entry): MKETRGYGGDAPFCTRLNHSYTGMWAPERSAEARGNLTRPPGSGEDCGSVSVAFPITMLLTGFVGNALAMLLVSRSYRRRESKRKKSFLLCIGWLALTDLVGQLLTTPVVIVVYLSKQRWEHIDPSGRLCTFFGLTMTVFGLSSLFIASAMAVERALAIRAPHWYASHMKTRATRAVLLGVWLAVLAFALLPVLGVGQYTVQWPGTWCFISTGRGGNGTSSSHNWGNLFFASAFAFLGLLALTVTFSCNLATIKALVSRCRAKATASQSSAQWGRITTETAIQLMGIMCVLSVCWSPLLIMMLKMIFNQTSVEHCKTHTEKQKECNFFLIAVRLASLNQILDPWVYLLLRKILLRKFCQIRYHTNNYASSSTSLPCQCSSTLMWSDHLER
Kind of experiment: Displacement of [3H]PGE2 from human recombinant EP3 receptor expressed in HEK293 cell membranes after 120 mins by liquid scintillation counting method.

The target in experiment [9] is T1, Prostaglandin E2 receptor EP2 subtype. Briefly: Agonist activity at human EP2 receptor expressed in HEK293T/17 cells assessed as increase in GalphaS-mediated CREB activation at 10 uM measured after 6 to 24 hrs by SEAP reporter gene-based chemiluminescence assay relative to control. Type of experiment: functional, cell-based.

The structures appear in SMILES notation.

T2 sequence (P35408 whole entry): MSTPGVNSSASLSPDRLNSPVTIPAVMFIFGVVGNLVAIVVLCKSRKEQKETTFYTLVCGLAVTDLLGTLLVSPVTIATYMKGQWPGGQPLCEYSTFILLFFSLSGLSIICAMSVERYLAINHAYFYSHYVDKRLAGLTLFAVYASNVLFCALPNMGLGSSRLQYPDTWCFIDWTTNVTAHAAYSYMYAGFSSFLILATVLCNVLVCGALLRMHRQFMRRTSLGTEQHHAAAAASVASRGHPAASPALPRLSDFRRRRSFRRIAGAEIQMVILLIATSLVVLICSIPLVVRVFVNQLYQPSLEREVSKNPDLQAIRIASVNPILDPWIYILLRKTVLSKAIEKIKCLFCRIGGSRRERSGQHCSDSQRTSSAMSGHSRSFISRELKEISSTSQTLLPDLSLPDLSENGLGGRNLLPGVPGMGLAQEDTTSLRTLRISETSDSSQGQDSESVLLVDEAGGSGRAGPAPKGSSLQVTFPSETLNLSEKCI

On to `CCCCC[C@H](O)/C=C/[C@H]1CC(F)(F)C(=O)N1CCCCCCC(=O)O`, for which the figures for the Ki in [1], in [7] and in experiment [8] were 329 nM, 0.2 nM and 350 nM, respectively. The EC50 in [2] is above 10000 nM; in experiment [3] it was 0.348 nM; in experiment [4], 0.021 nM; in [6], 2270 nM. The Activity in experiment [5] is below 50%.
For `COCc1cccc(C[C@H](O)/C=C/[C@H]2[C@H](O)CC(=O)[C@@H]2CCSCCCC(=O)O)c1`, the EC50 in experiment [2] was determined as 10000 nM; in experiment [4], 0.01 nM; in [6] it was 610 nM. Further, in [5], the Activity is below 50%. Besides, the Ki in [7] worked out at 0.396 nM.
Regarding `CCCCC[C@H](O)/C=C/[C@H]1CCC(=O)N1CCCCCCC(=O)O`, the figures for the Ki in experiment [1], in experiment [7] and in experiment [8] were 1460 nM, 1.61 nM and 1170 nM, respectively. In addition, the EC50 in [2] is above 10000 nM; in experiment [4], 0.065 nM; in experiment [6], above 10000 nM. In addition, the Activity in experiment [5] and in [9] was below 50% each time.
